Experiment [1] can be described thus: DPPH radical scavenging assay. It is filed as biochemical. The method, boiled down:
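Acylselenoureas at 0.003 and 0.03 mg/mL (final dilutions from DMSO stock, via methanol) mixed with DPPH• prepared at 0.04 mg/mL in methanol. Absorbance decrease at 517 nm followed 0–120 min; % scavenging calculated relative to negative control, triplicates.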
A general note: Loss of DPPH colour is used to gauge radical scavenging.

The test system of experiment [2] is MDA-MB-231 (breast) cancer cell line. The experiment in a line: MTT cell viability assay, MDA-MB-231. To be noted: Homo sapiens, MDA-MB-231, 48 h; for activity at 10 µM: read-out: Cell growth %, MDA-MB-231, 10 µM, 48 h, MTT; for activity at 50 µM: read-out: Cell growth %, MDA-MB-231, 50 µM, 48 h, MTT; for IC50: read-out: IC50 MDA-MB-231. It is filed as cell-based, human. The method, boiled down:
(§1)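 MDA-MB-231, HTB-54 and DU-145 grown in RPMI 1640, HT-29 in McCoy's 5A (10% FBS). Output is % cell growth; IC50 determined; ≥3 experiments in quadruplicate.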
(In general: Tetrazolium assays rely on reduction of a dye to a coloured formazan, in cell work by metabolically active cells.)

The subject of experiment [3] is non-malignant BEAS-2B lung cell line. The experiment in a line: MTT cell viability assay, BEAS-2B. It is filed as cell-based. Conditions: Homo sapiens, normal lung, 48 h. As to the method:
Cell lines were purchased from the American Type Culture Collection (ATCC). Cell lines MDA-MB-231, HTB-54, DU-145, and BEAS-2B were cultured in RPMI 1640 medium (Gibco, Thermo Fisher Scientific, Gaithersburg, MD, USA) supplemented with 10% fetal bovine serum (FBS; Gibco), 100 units/mL penicillin, and […] streptomycin (Gibco). HT-29 cell line was grown in McCoy’s 5A (Gibco), 10% FBS, 100 units/mL penicillin, and 100 μg/mL streptomycin. Cells were maintained at 37 °C and 5% CO2. The culture medium was changed every three days.
The cell viability of each compound was measured by MTT colorimetric assay. Each compound was dissolved in DMSO at a concentration of 0.01 M. Each compound was tested at two different concentrations (10 and 50 µM) in MDA-MB-231 (breast), HTB-54 (lung), DU-145 (prostate), and HT-29 (colon) human cancer cell lines. Serial dilutions were prepared with supplemented culture medium. […] IC50 and selectivity indexes (SI) were determined.
Briefly, 1 × 10^4 tumor cells per well were grown in 96-well plates for 24 h. Then, these cells were incubated for 48 h with either DMSO (control) or a different concentration of each of the tested compounds. The cell viability was determined by adding 20 μL of MTT two hours and a half before the termination point. After this time, the culture medium was removed. The resulting formazan crystals were dissolved in 50 μL of DMSO, and the absorbance was measured at 570 nm. Results are expressed as % cell growth. The data were obtained from at least three independent experiments performed in quadruplicate.

The test system of experiment [4] is MDA-MB-231, HT-29, HTB-54 and DU-145 cancer cell lines. The experiment in a line: MTT cell viability assay, statements over the panel of cancer cell lines. Conditions: for IC50: Homo sapiens, span over HTB-54, MDA-MB-231 and DU-145; for cell growth: in at least three of the four cancer cell lines tested. The class given is cell-based, human. An outline of the steps:
as §1

Experiment [5] has as its system DU-145 cells. The experiment in a line: Total ROS measurement (Muse Oxidative Stress Kit). It is filed as cell-based, human. To be noted: DU-145, 16 h; 1.I and 5.I 10 µM, H2O2 0.9 µM. As to the method:
Total ROS levels were measured in DU-145 cells treated with 1.I and 5.I using the Muse Oxidative Stress Kit (EMD Millipore, Billerica, MA, USA) according to the manufacturer’s protocol. This kit uses Muse oxidative stress reagent to detect ROS inside cells. This kit identifies two different cell populations: ROS(−) cells and ROS(+) cells. In the graph, the ROS(−) population is represented by the M1 peak and the ROS(+) cells by the M2 peak. DU-145 cells treated with H2O2 (0.9 µM) were used as positive controls to identify M1 and M2 peaks. Percentages of ROS(−) and ROS(+) cells were measured using the Muse Cell Analyzer.

What is called inhibition is how much of the control response was suppressed. One may read the IC50 as the concentration needed to halve the response being measured. As for `CCCNC(=[Se])NC(=O)c1ccccc1` [Compound 5.I, N-(propylcarbamoselenoyl)benzamide], the inhibition in experiment [1] (0.003 mg/mL, 0 min) came to 1.7 ± 1.1%; in experiment [1] (0.003 mg/mL, 5 min), 2.9 ± 1.1%; in experiment [1] (0.003 mg/mL, 15 min) it was 4.6 ± 1.2%; in experiment [1] (0.003 mg/mL, 30 min) it was 6.4 ± 1.3%; in experiment [1] (0.003 mg/mL, 60 min) it was 9.3 ± 1.4%; in experiment [1] (0.003 mg/mL, 90 min), 11.4 ± 1.5%. Besides, the inhibition in experiment [1] (0.003 mg/mL, 120 min) is 13 ± 1.6%; in experiment [1] (0.03 mg/mL, 0 min) it was 3.2 ± 2.4%; in experiment [1] (0.03 mg/mL, 5 min), 16.6 ± 3.1%; in experiment [1] (0.03 mg/mL, 15 min), 29.8 ± 3.4%; in experiment [1] (0.03 mg/mL, 30 min), 46.1 ± 3.9%; in experiment [1] (0.03 mg/mL, 60 min), 72.6 ± 6.2%. Also, the inhibition was 97.7 ± 0.6% in experiment [1] (0.03 mg/mL, 90 min) and 96.7 ± 2.5% in experiment [1] (0.03 mg/mL, 120 min). Moreover, the activity at 10 µM in experiment [2] was determined as 45 ± 12.5%. The activity at 50 µM in experiment [2] is 21.3 ± 11.2%. Moreover, the IC50 in experiment [2] was 15.5 ± 6.3 µM; in experiment [3], > 100 µM; in experiment [4], 7.8 to 15.5 µM. Besides, in experiment [4], the cell growth entry was “below 55%”. Moreover, in experiment [5], the “ROS PROFILE M2 (ROS(+) cells)” value is recorded as ~13%.
Turning to `CCCNC(=[Se])NC(=O)c1ccco1` [Compound 1.I, N-(propylcarbamoselenoyl)furan-2-carboxamide], the inhibition in experiment [1] (0.003 mg/mL, 0 min) was determined as 0%; in experiment [1] (0.003 mg/mL, 5 min), 1.1 ± 2%; in experiment [1] (0.003 mg/mL, 15 min), 3.5 ± 2%; in experiment [1] (0.003 mg/mL, 30 min), 6.6 ± 2%; in experiment [1] (0.003 mg/mL, 60 min) it was 11.7 ± 2.3%; in experiment [1] (0.003 mg/mL, 90 min), 15.5 ± 2.5%. Besides, the inhibition is 17.5 ± 2.3% in experiment [1] (0.003 mg/mL, 120 min); 1.8 ± 1.5% in experiment [1] (0.03 mg/mL, 0 min); 10.3 ± 4.3% in experiment [1] (0.03 mg/mL, 5 min); 29.7 ± 4.1% in experiment [1] (0.03 mg/mL, 15 min); 55.4 ± 5.1% in experiment [1] (0.03 mg/mL, 30 min); 95.4 ± 4.1% in experiment [1] (0.03 mg/mL, 60 min). Also, the inhibition came to 96.5 ± 0.7% in experiment [1] (0.03 mg/mL, 90 min) and 96.4 ± 0.6% in experiment [1] (0.03 mg/mL, 120 min). The “time to reach the highest DPPH inhibition” value in experiment [1] (0.03 mg/mL) was 60 min. In addition, the activity at 10 µM in experiment [2] amounted to 46.7 ± 5.6%. Further, in experiment [2], the activity at 50 µM was 38 ± 7.8%. Moreover, the 50% inhibitory concentration (IC50) in experiment [2] is 8.8 ± 4.8 µM; in experiment [3], > 100 µM; in experiment [4], 7.8 to 15.5 µM. Moreover, the cell growth entry in experiment [4] is on record as “below 55%”.

The record behind these values is article PMC10376326, “Novel Acylselenourea Derivatives: Dual Molecules with Anticancer and Radical Scavenging Activity” (Antioxidants, 2023).
